Drawing on patent US12209102B2, “Heterocyclic compounds and uses thereof” (Kumquat Biosciences Inc., priority 2022, dated 2025), this text covers IC50 for ten molecules.

Each structure is given as a SMILES string.

One assay concerns the target T1, K-Ras G12D (Homo sapiens, UniProt P01116, G12D).
T1 construct: made in house; host or cells: E. coli BL21 (DE3)
Kind of assay: HTRF resonance energy transfer assay, K-Ras G12D / SOS1 interaction. The assay is classed as biochemical. The conditions noted are these: HTRF assay of Example 5; read-out: IC50 against K-Ras G12D. In short, it runs like this:
(§1)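 Read-out: HTRF 665/620 nm ratio (excitation 337 nm) after roughly 10 min or longer incubation, used to derive IC50. Donor anti-GST-Eu on GST-K-Ras; acceptor anti-6His-XL665 on His-hSOS1. Duplicate dose series from 10 μM down to 0.01 μM.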
Background: Time-resolved FRET reads energy transfer from a long-lived donor to a nearby acceptor.

The next assay has as its target T2, K-Ras G12S (Homo sapiens, UniProt P01116, G12S).
T2 construct: made in house; host or cells: E. coli BL21 (DE3)
Put plainly: HTRF resonance energy transfer assay, K-Ras G12S / SOS1 interaction. The assay is classed as biochemical. Conditions: HTRF assay of Example 5; read-out: IC50 against K-Ras G12S. In short, it runs like this:
as §1

A further assay deals with T3, K-Ras G12V (Homo sapiens, UniProt P01116, G12V).
T3 construct: made in house; host or cells: E. coli BL21 (DE3)
T3 sequence (P01116 1-188 isoform P01116-2 G12V): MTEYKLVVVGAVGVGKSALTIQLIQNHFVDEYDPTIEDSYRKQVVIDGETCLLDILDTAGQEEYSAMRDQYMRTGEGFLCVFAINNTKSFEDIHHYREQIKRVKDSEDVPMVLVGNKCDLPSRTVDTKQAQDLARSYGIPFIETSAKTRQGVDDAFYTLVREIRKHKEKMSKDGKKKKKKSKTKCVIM
Kind of assay: HTRF resonance energy transfer assay, K-Ras G12V / SOS1 interaction. It counts as biochemical. The conditions noted are these: HTRF assay of Example 5; read-out: IC50 against K-Ras G12V. In short, it runs like this:
as §1

The target in the next assay is T4, K-Ras WT (Homo sapiens, UniProt P01116).
T4 construct: made in house; host or cells: E. coli BL21 (DE3)
T4 sequence (P01116 1-188 isoform P01116-2): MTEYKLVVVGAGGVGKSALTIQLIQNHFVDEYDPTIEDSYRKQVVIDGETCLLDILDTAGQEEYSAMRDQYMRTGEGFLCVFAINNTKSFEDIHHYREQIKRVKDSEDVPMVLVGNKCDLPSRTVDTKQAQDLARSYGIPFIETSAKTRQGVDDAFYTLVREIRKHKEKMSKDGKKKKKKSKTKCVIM
Kind of assay: HTRF resonance energy transfer assay, K-Ras WT / SOS1 interaction. The assay is classed as biochemical. The conditions noted are these: HTRF assay of Example 5; read-out: IC50 against K-Ras WT. In short, it runs like this: as §1

For the next assay, the system named is GP2D cells. Put plainly: Ras cellular assay, growth of cells with K-Ras G12D mutation (CellTiter-Glo). It counts as cell-based. Conditions: cell growth, Example 9, G12D mutation, read-out: IC50 against GP2D cells.
The subject of a further assay is A549 cells. Put plainly: Ras cellular assay, growth of cells with K-Ras G12S mutation (CellTiter-Glo). The assay is classed as cell-based. The conditions noted are these: Homo sapiens, cell growth, Example 9, G12S mutation, read-out: IC50 against A549 cells. An outline of the steps:
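A549 cells (K-Ras G12S) in RPMI-1640 with 10% heat-inactivated FBS, seeded e.g. 800 per well in standard or ultra-low-attachment 384-well plates, treated next day with a dilution series (e.g. 10-point, 3-fold). Viability by CellTiter-Glo luminescence about 6 days later; IC50 from four-parameter fit.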

The subject of the next assay is SW620 cells. Kind of assay: Ras cellular assay, growth of cells with K-Ras G12V mutation (CellTiter-Glo). It counts as cell-based. The conditions noted are these: Homo sapiens, SW-620; cell growth, Example 9, G12V mutation; read-out: IC50 against SW620 cells. In short, it runs like this: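 SW620 (K-Ras G12V) cells, e.g. 800/well in RPMI-1640 with 10% heat-inactivated FBS on standard or ultra-low attachment plates, were dosed the day after plating with e.g. a 10-point 3-fold series. Viability by CellTiter-Glo luminescence about 6 days later; IC50 from four-parameter fit.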
In general terms: In ATP-based viability assays light output follows the ATP content of the culture.

Usually IC50 stands for the concentration needed to halve the response being measured.

T1 sequence (P01116 1-188 isoform P01116-2 G12D): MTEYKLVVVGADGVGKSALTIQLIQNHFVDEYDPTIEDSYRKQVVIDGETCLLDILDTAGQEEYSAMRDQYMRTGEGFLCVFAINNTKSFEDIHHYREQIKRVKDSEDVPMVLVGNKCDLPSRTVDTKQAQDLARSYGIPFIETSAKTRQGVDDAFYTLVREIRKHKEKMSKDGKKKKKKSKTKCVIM
T2 sequence (P01116 1-188 isoform P01116-2 G12S): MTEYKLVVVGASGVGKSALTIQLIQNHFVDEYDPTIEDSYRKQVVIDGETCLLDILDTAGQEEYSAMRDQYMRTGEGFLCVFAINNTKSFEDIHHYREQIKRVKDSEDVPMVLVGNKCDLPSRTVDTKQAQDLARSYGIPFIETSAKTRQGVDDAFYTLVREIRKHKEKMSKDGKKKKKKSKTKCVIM

As to `N#Cc1c(N)sc2c(F)ccc(-c3c(Cl)c4c5c(nc(OC[C@@]67CCCN6C[C@H](F)C7)nc5c3F)N(C3CCN(C(=O)C5C6COCC65)C3)CCO4)c12` (stereo partly drawn) [Compound 916, 4-(4-(1-(3-oxabicyclo[3.1.0]hexane-6-carbonyl)pyrrolidin-3-yl)-8-chloro-10-fluoro-2-(((2R,7aS)-2-fluorotetrahydro-1H-pyrrolizin-7a(5H)-yl)methoxy)-5,6-dihydro-4H-[1,4]oxazepino[5,6,7-de]quinazolin-9-yl)-2-amino-7-fluorobenzo[b]thiophene-3-carbonitrile], the IC50 at K-Ras G12D is less than 100 nM; on K-Ras G12S, less than 100 nM; at K-Ras G12V, less than 100 nM; on K-Ras WT it was less than 100 nM; in the assay on GP2D cells, less than 500 nM; in the assay on A549 cells, less than 5000 nM. The IC50 in the assay with SW620 cells is less than 5000 nM.
In the case of `CN1CCC(N2CCOc3c(Cl)c(-c4ccc(F)c5sc(N)c(C#N)c45)c(F)c4nc(OC[C@@]56CCCN5C[C@H](F)C6)nc2c34)C1` (stereo partly drawn) [Compound 921, 2-amino-4-(8-chloro-10-fluoro-2-(((2R,7aS)-2-fluorotetrahydro-1H-pyrrolizin-7a(5H)-yl)methoxy)-4-(1-methylpyrrolidin-3-yl)-5,6-dihydro-4H-[1,4]oxazepino[5,6,7-de]quinazolin-9-yl)-7-fluorobenzo[b]thiophene-3-carbonitrile], the IC50 at K-Ras G12D is less than 100 nM; at K-Ras G12S, less than 100 nM; on K-Ras G12V, less than 100 nM; at K-Ras WT, less than 100 nM; in the assay on GP2D cells it was less than 500 nM; in the assay on A549 cells, less than 5000 nM. Besides, the IC50 in the assay on SW620 cells is less than 5000 nM.
As for `CC(C1CC1C#N)N1CCOc2c(Cl)c(-c3ccc(F)c4sc(N)c(C#N)c34)c(F)c3nc(OC[C@@]45CCCN4C[C@H](F)C5)nc1c23` (stereo partly drawn) [Compound 923, 2-amino-4-(8-chloro-4-(1-(2-cyanocyclopropyl)ethyl)-10-fluoro-2-(((2R,7aS)-2-fluorotetrahydro-1H-pyrrolizin-7a(5H)-yl)methoxy)-5,6-dihydro-4H-[1,4]oxazepino[5,6,7-de]quinazolin-9-yl)-7-fluorobenzo[b]thiophene-3-carbonitrile], the IC50 was less than 100 nM on K-Ras G12D; less than 100 nM at K-Ras G12S; less than 100 nM on K-Ras G12V; less than 100 nM on K-Ras WT; less than 500 nM in the assay with GP2D cells; less than 5000 nM in the assay with A549 cells. Further, in the assay with SW620 cells, the IC50 is less than 5000 nM.
Turning to `N#Cc1c(N)sc2c(F)ccc(-c3c(Cl)c4c5c(nc(OC[C@@]67CCCN6C[C@H](F)C7)nc5c3F)N(CCC(F)(F)F)CCO4)c12` [Compound 932, 2-amino-4-(8-chloro-10-fluoro-2-(((2R,7aS)-2-fluorotetrahydro-1H-pyrrolizin-7a(5H)-yl)methoxy)-4-(3,3,3-trifluoropropyl)-5,6-dihydro-4H-[1,4]oxazepino[5,6,7-de]quinazolin-9-yl)-7-fluorobenzo[b]thiophene-3-carbonitrile], the IC50 on K-Ras G12D is less than 100 nM; on K-Ras G12S, less than 100 nM; at K-Ras G12V, less than 100 nM; on K-Ras WT, less than 100 nM; with GP2D cells it was less than 500 nM; with A549 cells, less than 5000 nM. In the assay with SW620 cells, the IC50 is less than 5000 nM.
In the case of `CC(CO)N1CCOc2c(Cl)c(-c3ccc(F)c4sc(N)c(C#N)c34)c(F)c3nc(OC[C@@]45CCCN4C[C@H](F)C5)nc1c23` (stereo partly drawn) [Compound 937, 2-amino-4-(8-chloro-10-fluoro-2-(((2R,7aS)-2-fluorotetrahydro-1H-pyrrolizin-7a(5H)-yl)methoxy)-4-(1-hydroxypropan-2-yl)-5,6-dihydro-4H-[1,4]oxazepino[5,6,7-de]quinazolin-9-yl)-7-fluorobenzo[b]thiophene-3-carbonitrile], the IC50 on K-Ras G12D was less than 100 nM; at K-Ras G12S, less than 100 nM; on K-Ras G12V, less than 100 nM; on K-Ras WT, less than 100 nM; in the assay with GP2D cells, less than 500 nM; in the assay on A549 cells, less than 5000 nM. In the assay with SW620 cells, the IC50 was less than 5000 nM.
Turning to `N#Cc1c(N)sc2c(F)ccc(-c3c(Cl)c4c5c(nc(OC[C@@]67CCCN6C[C@H](F)C7)nc5c3F)N([C@H]3CCN(C(=O)C(F)F)C3)CCO4)c12` [Compound 940, 2-amino-4-(8-chloro-4-((S)-1-(2,2-difluoroacetyl)pyrrolidin-3-yl)-10-fluoro-2-(((2R,7aS)-2-fluorotetrahydro-1H-pyrrolizin-7a(5H)-yl)methoxy)-5,6-dihydro-4H-[1,4]oxazepino[5,6,7-de]quinazolin-9-yl)-7-fluorobenzo[b]thiophene-3-carbonitrile], the IC50 was less than 100 nM at K-Ras G12D; less than 100 nM on K-Ras G12S; less than 100 nM at K-Ras G12V; less than 100 nM at K-Ras WT; less than 500 nM with GP2D cells; less than 5000 nM in the assay on A549 cells. For the same molecule, the IC50 in the assay with SW620 cells is less than 5000 nM.
Take `CC1Oc2c(Cl)c(-c3ccc(F)c4sc(N)c(C#N)c34)c(F)c3nc(OC[C@@]45CCCN4C[C@H](F)C5)nc(c23)N(CC(F)F)C1C` (stereo partly drawn) [Compound 944, 2-amino-4-(8-chloro-4-(2,2-difluoroethyl)-10-fluoro-2-(((2R,7aS)-2-fluorotetrahydro-1H-pyrrolizin-7a(5H)-yl)methoxy)-5,6-dimethyl-5,6-dihydro-4H-[1,4]oxazepino[5,6,7-de]quinazolin-9-yl)-7-fluorobenzo[b]thiophene-3-carbonitrile]: the IC50 was less than 100 nM at K-Ras G12D; less than 100 nM at K-Ras G12S; less than 100 nM on K-Ras G12V; less than 100 nM on K-Ras WT; less than 500 nM with GP2D cells; less than 5000 nM in the assay on A549 cells. Also, in the assay with SW620 cells, the IC50 was less than 5000 nM.
Regarding `C[C@H]1CN(CCN(C)C)c2nc(OC[C@@]34CCCN3C[C@H](F)C4)nc3c(F)c(-c4ccc(F)c5sc(N)c(C#N)c45)c(Cl)c(c23)O1` [Compound 950, 2-amino-4-((6S)-8-chloro-4-(2-(dimethylamino)ethyl)-10-fluoro-2-(((2R,7aS)-2-fluorotetrahydro-1H-pyrrolizin-7a(5H)-yl)methoxy)-6-methyl-5,6-dihydro-4H-[1,4]oxazepino[5,6,7-de]quinazolin-9-yl)-7-fluorobenzo[b]thiophene-3-carbonitrile], the IC50 was less than 100 nM on K-Ras G12D; less than 100 nM on K-Ras G12S; less than 100 nM at K-Ras G12V; less than 100 nM on K-Ras WT; less than 500 nM with GP2D cells; less than 5000 nM in the assay on A549 cells. For the same molecule, in the assay on SW620 cells, the IC50 was less than 5000 nM.
Regarding `N#Cc1c(N)sc2c(F)ccc(-c3c(Cl)c4c5c(nc(OC[C@@]67CCCN6C[C@H](F)C7)nc5c3F)N(CC3CC(F)(F)C3)CCO4)c12` [Compound 951, 2-amino-4-(8-chloro-4-((3,3-difluorocyclobutyl)methyl)-10-fluoro-2-(((2R,7aS)-2-fluorotetrahydro-1H-pyrrolizin-7a(5H)-yl)methoxy)-5,6-dihydro-4H-[1,4]oxazepino[5,6,7-de]quinazolin-9-yl)-7-fluorobenzo[b]thiophene-3-carbonitrile], the IC50 at K-Ras G12D was less than 100 nM; at K-Ras G12S, less than 100 nM; at K-Ras G12V it was less than 100 nM; at K-Ras WT it was less than 100 nM; in the assay on GP2D cells it was less than 500 nM; in the assay on A549 cells it was less than 5000 nM. The IC50 in the assay with SW620 cells was less than 5000 nM.
On to `C[C@H](O)[C@H]1COc2c(Cl)c(-c3ccc(F)c4sc(N)c(C#N)c34)c(F)c3nc(OC[C@@]45CCCN4C[C@H](F)C5)nc(c23)N1CCC(F)F` [Compound 954, 2-amino-4-((5R)-8-chloro-4-(3,3-difluoropropyl)-10-fluoro-2-(((2R,7aS)-2-fluorotetrahydro-1H-pyrrolizin-7a(5H)-yl)methoxy)-5-((S)-1-hydroxyethyl)-5,6-dihydro-4H-[1,4]oxazepino[5,6,7-de]quinazolin-9-yl)-7-fluorobenzo[b]thiophene-3-carbonitrile], for which the IC50 on K-Ras G12D is less than 100 nM; at K-Ras G12S, less than 100 nM; on K-Ras G12V, less than 100 nM; on K-Ras WT, less than 100 nM; with GP2D cells, less than 500 nM; with A549 cells, less than 5000 nM. Moreover, the IC50 with SW620 cells is less than 5000 nM.
